Reference: article PMC6731595, “The anti-parasitic agent suramin and several of its analogues are inhibitors of the DNA binding protein Mcm10” (Open Biology, 2019)
“Also recorded” adds a separate entry of the source. Structures can show the parent of a compound that is named as a salt.

How the values were obtained:
[1] = tested on: hTERT RPE-1 cells; test: CellTiter-Glo cell viability assay, hTERT RPE-1; type: cell-based; conditions: Homo sapiens, hTERT-RPE1, 96 h; 4 days, intracellular ATP; mean ± s.e.m., n = 3
Experimental: HCT116 cells were grown in McCoy's 5A medium (Corning 10-050-CV) supplemented with 10% FBS (Sigma F4135), 1% Pen Strep (Gibco 15140) and 1% L-Glutamine (Gibco 205030). hTERT RPE-1 cells were grown in DMEM/F12 medium (Gibco 11320) supplemented with 10% FBS (Sigma F4135) and 1% Pen Strep (Gibco 15140). Cells were cultured at 37°C and 5% CO2. Cells were plated at 250 cells (hTERT RPE-1) or 500 cells (HCT116) per well in white-walled 96-well plates (Costar 3610) and allowed to recover for 24 h. Stock solutions of each inhibitor were prepared in sterile 1× PBS (Gibco 14190), and further diluted in the appropriate growth medium for each cell type. Cells were allowed to grow for 4 days in inhibitor containing medium and cell viability was measured with the CellTiter-Glo Luminescent Cell Viability Assay (Promega G7572) following the manufacturer's instructions. Viability of each drug treatment condition was normalized to the untreated control for each cell line and fitted to the sigmoidal dose–response variable slope four parameter equation in GraphPad Prism 6.0.

[2] = target: T1, human RPA70AB (A and B DNA binding domains of RPA70) (Homo sapiens, UniProt P27694); test: Fluorescence polarization competition assay, displacement of 5′-6FAM ssDNA probe from RPA70AB; conditions: for selectivity for hMcm10 over RPA70AB: FP; for Ki: predominant low-affinity (or only) component, mean ± s.e.m., n ≥ 3, read-out: fluorescence polarization hRPA70AB Ki2; for selectivity RPA/ hMcm10: ratio of hRPA70AB Ki2 to hMcm10-ID Ki (FP)
T1 construct: recombinant human RPA70AB (181-422) in a pSV281 vector; 6xHis (TEV site) (N, cleaved yes); made in house; host or cells: Escherichia coli BL21(DE3)
Experimental: (§1) A fluorescence polarization (FP) HTS assay was established to detect inhibitors of the binding of the 5′-6FAM 10-mer oligo probe to Mcm10. Test compounds dissolved in DMSO were added to 384-well plates (Corning 4514) using an Echo 550 acoustic dispenser (final DMSO 0.1%) to achieve a final single point screening concentration of 10 µM. Then 10 µl of 2× Xenopus internal domain Mcm10 (xMcm10-ID, final concentration 2 µM) in binding buffer (20 mM Tris HCl, 100 mM NaCl, 5% glycerol, and 0.01% triton, pH 7.5) was added using the Combi nL Multidrop dispenser. Finally, 10 µl of 2× 5′-6FAM DNA (final 12.5 nM) in binding buffer was added using the Multidrop. DMSO (0.1%, high signal) and probe only (low signal) controls were included on every plate. Plates were mixed for 2 min, incubated for 60 min at RT in the dark, and read on a CLARIOstar multimode plate reader (excitation: 482-16, emission: 530-40, dichroic filter: LP504).
(§2) The LOPAC pilot screen identified the sulfhydryl reagent 4-chloromercuribenzoic acid as an inhibitor in the fluorescence polarization (FP) assay. As there was no known Mcm10 inhibitor, 4-chloromercuribenzoic acid (30 μM) was used as a positive control on initial screening plates. Following the discovery of suramin as a Mcm10 inhibitor, suramin (7 μM) was used as a positive control on subsequent screening plates. To confirm activity, screening hits were tested in dose response experiments (8 concentrations in duplicate) using xMcm10-ID. Similar dose response experiments were conducted with suramin and its analogs to confirm activity for hMcm10-ID (1 μM) and xMcm10-FL (2 μM) and to determine selectivity relative to RPA70AB (0.4 μM). Saturation experiments for each protein were conducted using increasing concentrations of protein with a fixed probe concentration (12.5 nM). FP was measured in mP units, and ∆mP values for each well were calculated as the difference between the measured mP and the average of the “probe only” controls. […] The parallel and perpendicular mP values were also used to calculate total fluorescence intensity (TFI) determined by the sum of parallel mP + (2 x perpendicular mP). TFI was used to detect fluorescence interference by compounds [1]. […] IC50 values were calculated using the four parameter logistic equation in Prism 6.0 (GraphPad). Ki values were obtained using an online Ki calculator according to the equations of Nikolovska-Coleska (http://sw16.im.med.umich.edu/soft-ware/calc_ki/). KD values were calculated using the one site or two site binding equations in Prism 6.0 (GraphPad).

[3] = target: T2, human Mcm10 internal domain (hMcm10-ID) (Homo sapiens, UniProt Q7L590); test: Fluorescence polarization competition assay, displacement of 5′-6FAM 10-mer ssDNA probe from hMcm10-ID; type: binding; conditions: mean ± s.e.m., n ≥ 3; hMcm10-ID 1 μM, probe 12.5 nM
T2 construct: hMcm10-ID (residues 237 to 436) were expressed in E. coli strain BL21(DE3); 6xHis (HRV 3C site) (N, cleaved yes); made in house; host or cells: E. coli BL21(DE3)
T2 sequence (Q7L590 237-436): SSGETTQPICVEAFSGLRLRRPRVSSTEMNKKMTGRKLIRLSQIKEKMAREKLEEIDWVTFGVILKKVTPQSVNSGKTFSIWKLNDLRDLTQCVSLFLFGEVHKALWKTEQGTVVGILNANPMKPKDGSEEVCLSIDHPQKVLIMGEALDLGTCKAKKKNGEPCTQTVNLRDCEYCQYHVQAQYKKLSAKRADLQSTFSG
Experimental: as §1, §2

[4] = tested on: HCT116 cells; test: CellTiter-Glo cell viability assay, HCT116; type: cell-based, human; conditions: for IC50: Homo sapiens, HCT-116, 96 h, 4 days, intracellular ATP, mean ± s.e.m., n = 3
Experimental: Cells were cultured at 37°C and 5% CO2. […] Cells were allowed to grow for 4 days in inhibitor containing medium and cell viability was measured with the CellTiter-Glo Luminescent Cell Viability Assay (Promega G7572) following the manufacturer's instructions. Viability of each drug treatment condition was normalized to the untreated control for each cell line and fitted to the sigmoidal dose–response variable slope four parameter equation in GraphPad Prism 6.0.

[5] = target: T3, Xenopus internal domain Mcm10 (xMcm10-ID) (Xenopus laevis, UniProt Q5EAW4); test: Fluorescence polarization HTS and dose-response assay, 5′-6FAM probe binding to xMcm10-ID; conditions: dose-response with repurchased or purchased compound
T3 construct: xMcm10-ID (amino acid residues 229 to 427); 6xHis (HRV 3C site) (N, cleaved yes); made in house; host or cells: E. coli BL21(DE3)
T3 sequence (Q5EAW4 229-427): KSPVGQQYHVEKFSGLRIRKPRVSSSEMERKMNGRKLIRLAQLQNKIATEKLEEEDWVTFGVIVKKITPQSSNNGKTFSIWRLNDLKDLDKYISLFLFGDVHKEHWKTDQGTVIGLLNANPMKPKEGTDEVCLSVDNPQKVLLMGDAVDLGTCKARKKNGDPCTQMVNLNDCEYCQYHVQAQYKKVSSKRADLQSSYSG
Experimental: as §1, §2

T1 sequence (P27694 181-422): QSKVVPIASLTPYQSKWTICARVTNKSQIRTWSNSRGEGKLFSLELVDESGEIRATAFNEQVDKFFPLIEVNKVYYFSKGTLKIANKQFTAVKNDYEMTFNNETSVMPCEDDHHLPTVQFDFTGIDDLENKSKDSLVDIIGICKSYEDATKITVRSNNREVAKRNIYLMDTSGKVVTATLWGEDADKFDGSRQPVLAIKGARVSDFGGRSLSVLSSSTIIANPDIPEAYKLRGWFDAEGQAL

Row | selectivity for hMcm10 over RPA70AB [2] | Ki [2] | selectivity RPA/ hMcm10 [2] | Ki [3] | selectivity = hTERT RPE-1 IC50/HCT116 IC50 [4] | IC50 [4] | Structure (SMILES) | IC50 [1] | higher cytotoxicity for HCT116 cancer cells in comparison to hTERT RPE-1 cells [4] | inhibition of 5′-6FAM probe binding to xMcm10-ID (result in words) [5]
1 | more than 10 fold | 1.9 ± 0.1 µM | 11 | 0.17 ± 0.02 µM | 3.2 | 38 ± 1 µM | O=C(Nc1cccc(C(=O)Nc2cc(C(=O)Nc3ccc(S(=O)(=O)O)c4cc(S(=O)(=O)O)cc(S(=O)(=O)O)c34)ccc2F)c1)Nc1cccc(C(=O)Nc2cc(C(=O)Nc3ccc(S(=O)(=O)O)c4cc(S(=O)(=O)O)cc(S(=O)(=O)O)c34)ccc2F)c1 [NF157] | 120 ± 16 µM | approximately 3.5 fold | –
2 | greater than 50 fold | > 1000 µM | >59 | 17 ± 1 µM | 1.3 | 310 ± 20 µM | Cc1nc(/N=N/c2ccc(S(=O)(=O)O)cc2S(=O)(=O)O)c(COP(=O)(O)O)c(C=O)c1O [PPADS, pyridoxalphosphate-6-azophenyl-2’, 4’-disulfonic acid tetrasodium salt] | 400 ± 14 µM | little cell type specificity | weakly and incompletely inhibit; also recorded: little activity
3 | – | 11 ± 1 µM | 6 | 1.8 ± 0.2 µM | – | – | O=C(Nc1cccc(C(=O)Nc2ccc(S(=O)(=O)O)c3cc(S(=O)(=O)O)cc(S(=O)(=O)O)c23)c1)Nc1cccc(C(=O)Nc2ccc(S(=O)(=O)O)c3cc(S(=O)(=O)O)cc(S(=O)(=O)O)c23)c1 [NF023] | – | – | –
4 | greater than 50 fold | > 1000 µM | >56 | 18 ± 2 µM | 1.5 | 370 ± 30 µM | Cc1nc(/N=N/c2cc(S(=O)(=O)O)ccc2S(=O)(=O)O)c(COP(=O)(O)O)c(C=O)c1O [iso-PPADS, pyridoxalphosphate-6-azophenyl-2’, 5’-disulfonic acid tetrasodium salt] | 560 ± 55 µM | little cell type specificity | weakly and incompletely inhibit; also recorded: little activity

Row | Structure (SMILES) | selectivity for hMcm10 over RPA70AB [2] | Ki [2] | selectivity RPA/ hMcm10 [2] | Ki [3] | selectivity = hTERT RPE-1 IC50/HCT116 IC50 [4] | IC50 [4] | IC50 [1] | higher cytotoxicity for HCT116 cancer cells in comparison to hTERT RPE-1 cells [4] | inhibition of 5′-6FAM probe binding to xMcm10-ID (result in words) [5]
5 | Cc1ccc(C(=O)Nc2ccc(S(=O)(=O)O)c3cc(S(=O)(=O)O)cc(S(=O)(=O)O)c23)cc1NC(=O)c1cccc(NC(=O)Nc2cccc(C(=O)Nc3cc(C(=O)Nc4ccc(S(=O)(=O)O)c5cc(S(=O)(=O)O)cc(S(=O)(=O)O)c45)ccc3C)c2)c1 [suramin, suramin sodium salt] | – | 2.5 ± 0.1 µM | 3 | 0.83 ± 0.07 µM | 3.7 | 109 ± 10 µM | 400 ± 22 µM | approximately 3.5 fold | active
